Read-outs that look alike come from different tables or passages of the source.

Experimental findings from PMC7252619 (PLoS ONE, 2020) are described below.

The assay concerns the target T1, MST-4 (Homo sapiens, UniProt Q9P289).
T1 construct: purchased ReactionBiology
The experiment in a line: Kinase activity test (ReactionBiology), % enzyme activity relative to DMSO.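 Note: marketed FDA-approved drugs screened at 10 µM and 1 µM against a ten-kinase panel, remaining activity given as percent of DMSO controls.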 Particulars: MST4. The class given is biochemical.

[1] abbreviates: Average, read-out: % Enzyme Activity (relative to DMSO controls), Average.
The mark [2] stands for this setting: replicate Data 1, read-out: % Enzyme Activity (relative to DMSO controls), Data 1.
The mark [3] stands for this setting: replicate Data 2, read-out: % Enzyme Activity (relative to DMSO controls), Data 2.

T1 sequence (Q9P289 whole entry): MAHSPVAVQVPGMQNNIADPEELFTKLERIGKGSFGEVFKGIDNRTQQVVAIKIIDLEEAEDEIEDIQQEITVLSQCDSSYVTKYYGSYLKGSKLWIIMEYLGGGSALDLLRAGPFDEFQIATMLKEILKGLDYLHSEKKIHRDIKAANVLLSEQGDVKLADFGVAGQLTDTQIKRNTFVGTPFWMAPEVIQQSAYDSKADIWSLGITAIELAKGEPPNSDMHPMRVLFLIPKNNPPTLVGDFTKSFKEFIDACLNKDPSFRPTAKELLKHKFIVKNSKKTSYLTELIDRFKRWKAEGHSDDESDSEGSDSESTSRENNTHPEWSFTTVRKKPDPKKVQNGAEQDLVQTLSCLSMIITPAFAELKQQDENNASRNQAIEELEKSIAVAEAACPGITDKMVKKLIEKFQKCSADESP

In the case of `Nc1ncnc2c1ncn2[C@@H]1O[C@H](CO)[C@@H](O)[C@H]1O` [Adenosine, reference compound], the remaining activity at 1 µM runs as follows: under setting [1], 91.7%; under setting [2], 92.1%; under setting [3], 91.2%. Besides, the remaining activity at 10 µM was determined as 78.5% under setting [1], 69.9% under setting [2] and 87.1% under setting [3].
